Source: ChEMBL document CHEMBL3526109 (Drug Metab Dispos, 2011)

Assays:
Conditions in all cases: in vivo
[1] = system: Cynomolgus monkey; test: Total drug recovery in bile duct-cannulated cynomolgus monkey at 10 mg/kg, po administered as single dose via gavage measured during 0 to 72 hrs by liquid scintillation counting; format: ADME, organism-based, Macaca fascicularis
[2] = system: Homo sapiens; test: AUC (0 to t) as total radioactivity in human plasma treated at 800 mg, po administered as single dose […] by mass spectrometry; format: ADME, organism-based
[3] = Drug recovery in cynomolgus monkey feces at 10 mg/kg, po administered as single dose via gavage measured during 0 to 168 hrs by liquid scintillation counting; format: ADME, organism-based, Macaca fascicularis
[4] = Drug recovery in bile duct-cannulated rat feces at 100 mg/kg, po administered as single dose via gavage measured during 0 to 48 hrs by liquid scintillation counting; format: ADME, organism-based
[5] = Drug recovery in bile duct-cannulated cynomolgus monkey bile at 10 mg/kg, po administered as single dose via gavage measured during 0 to 72 hrs by liquid scintillation counting; format: ADME, organism-based, Macaca fascicularis
[6] = system: Cynomolgus monkey; test: Cmax as total radioactivity in cynomolgus monkey plasma treated at 10 mg/kg, po administered as single dose via gavage by liquid scintillation counting; format: ADME, organism-based, Macaca fascicularis
[7] = system: Homo sapiens; test: Cmax as total radioactivity in human plasma treated at 800 mg, po administered as single dose […] by mass spectrometry; format: ADME, organism-based
[8] = system: Rattus norvegicus; test: AUC (0 to t) as total radioactivity in Sprague-Dawley rat plasma treated at 100 mg/kg, po administered as single dose via gavage by liquid scintillation counting; format: ADME, organism-based
[9] = system: Cynomolgus monkey; test: AUC (0 to 12 hrs) as total radioactivity in cynomolgus monkey plasma at 10 mg/kg, po administered as single oral dose by HPLC analysis; format: ADME, organism-based, Macaca fascicularis
[10] = Drug recovery in bile duct-cannulated rat urine at 100 mg/kg, po administered as single dose via gavage measured during 0 to 48 hrs by liquid scintillation counting; format: ADME, organism-based
[11] = system: Cynomolgus monkey; test: AUC (0 to t) as total radioactivity in cynomolgus monkey plasma treated at 10 mg/kg, po administered as single dose via gavage by liquid scintillation counting; format: ADME, organism-based, Macaca fascicularis
[12] = Drug recovery in bile duct-cannulated rat bile at 100 mg/kg, po administered as single dose via gavage measured during 0 to 48 hrs by liquid scintillation counting; format: ADME, organism-based
[13] = Drug recovery in bile duct-cannulated cynomolgus monkey feces at 10 mg/kg, po administered as single dose via gavage measured during 0 to 72 hrs by liquid scintillation counting; format: ADME, organism-based, Macaca fascicularis
[14] = system: Rattus norvegicus; test: Total drug recovery in Sprague-Dawley rat at 100 mg/kg, po administered as single dose via gavage measured during 0 to 168 hrs by liquid scintillation counting; format: ADME, organism-based
[15] = Drug recovery in Sprague-Dawley rat urine at 100 mg/kg, po administered as single dose via gavage measured during 0 to 168 hrs by liquid scintillation counting; format: ADME, organism-based
[16] = system: Rattus norvegicus; test: Tmax of total radioactivity in Sprague-Dawley rat plasma treated at 100 mg/kg, po administered as single dose via gavage by liquid scintillation counting; format: ADME, organism-based
[17] = Drug recovery in Sprague-Dawley rat feces at 100 mg/kg, po administered as single dose via gavage measured during 0 to 168 hrs by liquid scintillation counting; format: ADME, organism-based
[18] = Drug recovery in bile duct-cannulated cynomolgus monkey urine at 10 mg/kg, po administered as single dose via gavage measured during 0 to 72 hrs by liquid scintillation counting; format: ADME, organism-based, Macaca fascicularis
[19] = system: Homo sapiens; test: Tmax of total radioactivity in human plasma treated at 800 mg, po administered as single dose […] by mass spectrometry; format: ADME, organism-based
[20] = Drug recovery in human feces at 800 mg, po administered as single dose via gavage measured during 0 to 288 hrs by liquid scintillation counting; format: ADME, organism-based
[21] = Drug recovery in cynomolgus monkey urine at 10 mg/kg, po administered as single dose via gavage measured during 0 to 168 hrs by liquid scintillation counting; format: ADME, organism-based, Macaca fascicularis
[22] = system: Homo sapiens; test: Total drug recovery in human at 800 mg, po administered as single dose […] measured during 0 to 288 hrs by liquid scintillation counting; format: ADME, organism-based
[23] = Drug recovery in human urine at 800 mg, po administered as single dose via gavage measured during 0 to 288 hrs by liquid scintillation counting; format: ADME, organism-based
[24] = system: Cynomolgus monkey; test: Tmax of total radioactivity in cynomolgus monkey plasma treated at 10 mg/kg, po administered as single dose via gavage by liquid scintillation counting; format: ADME, organism-based, Macaca fascicularis
[25] = system: Rattus norvegicus; test: AUC (0 to 6 hrs) as total radioactivity in Sprague-Dawley rat plasma at 100 mg/kg, po administered as single oral dose by HPLC analysis; format: ADME, organism-based
[26] = system: Cynomolgus monkey; test: Total drug recovery in cynomolgus monkey at 10 mg/kg, po administered as single dose via gavage measured during 0 to 168 hrs by liquid scintillation counting; format: ADME, organism-based, Macaca fascicularis
[27] = system: Rattus norvegicus; test: Total drug recovery in bile duct-cannulated rat at 100 mg/kg, po administered as single dose via gavage measured during 0 to 48 hrs by liquid scintillation counting; format: ADME, organism-based
[28] = system: Homo sapiens; test: AUC (0 to 12 hrs) as total radioactivity in human plasma at 800 mg, po administered as single oral dose by HPLC analysis; format: ADME, organism-based
[29] = system: Rattus norvegicus; test: Cmax as total radioactivity in Sprague-Dawley rat plasma treated at 100 mg/kg, po administered as single dose via gavage by liquid scintillation counting; format: ADME, organism-based

In the case of `Cc1cc2c(F)c(Oc3n[14cH]nn4cc(OC[C@@H](C)OC(=O)[C@H](C)N)c(C)c34)ccc2[nH]1`, the Radiolabel recovery [1] is reported as 81.43%, the AUCt [2] is reported as 203.8 µg·h/mL and the Radiolabel recovery [3] is reported as 76.31%. The Radiolabel recovery [4] was 3.31%, the Radiolabel recovery [5] was 47.66% and the Cmax [6] was 9700 ng/mL. For the same molecule, the Cmax [7] was 9400 ng/mL, the AUCt [8] was 250 µg·h/mL and the AUC [9] was 69315 ugequiv/l.hr. For the same molecule, the Radiolabel recovery [10] was 7.33%, the AUCt [11] was 90.3 µg·h/mL and the Radiolabel recovery [12] was 78.35%. For the same molecule, the Radiolabel recovery [13] was 26.41%, the Radiolabel recovery [14] was 93.68% and the Radiolabel recovery [15] was 9.46%. For the same molecule, the Tmax [16] was 2 h, the Radiolabel recovery [17] was 83.58% and the Radiolabel recovery [18] was 3.56%. For the same molecule, the Tmax [19] was 1 h, the Radiolabel recovery [20] was 81.54% and the Radiolabel recovery [21] was 10.3%. It also gave a Radiolabel recovery [22] of 93.72%, a Radiolabel recovery [23] of 12.18% and a Tmax [24] of 2 h. The AUC [25] was 139766 ugequiv/l.hr, the Radiolabel recovery [26] was 89.79% and the Radiolabel recovery [27] was 88.99%. For the same molecule, the AUC [28] was 65627.4 ugequiv/l.hr and the Cmax [29] was 35200 ng/mL.
